{"source": "paper PMC3867265", "about": "(Science signaling, 2013)", "molecules": {"B1": {"name": "mouse MT2-P95L mutant, Rluc8 and YFP fusion proteins (receptor, UniProt Q8CIQ6 1-364, looked up)", "chain": "MPENSSIPNCCEASGLAARPSWSGSAGARPPVTARAPWVAPMLSTVVVVTTAVDFVGNLLVILSVLRNRKLRNAGNLFVVSLALADLVIALYPYLLILVAIIRDGWVLGEAHCKASAFVMGLSVIGSVFNITAIAINRYCCICHSTTYHRVCSHWYTPIYISLVWLLTLVALVPNFFVGSLEYDPRIYSCTFIQTASTQYTAAVVAIHFLLPMAVVSFCYLRIWVLVLQARRKAKATRKLRLRPSDLRSFLTMFAVFVVFAICWAPLNCIGLAVAINPEAMALQVPEGLFVTSYFLAYFNSCLNAIVYGLLNQNFRREYKRILLAIWNTRRCIQHASKHCLTEERQGPTPPAARATVPVKEGAL"}, "B2": {"name": "mouse melatonin receptor type 2 (MT2), Rluc8 and YFP fusion proteins (receptor, UniProt Q8CIQ6 1-364, looked up)", "chain": "MPENSSIPNCCEASGLAARPSWSGSAGARPPVTARAPWVAPMLSTVVVVTTAVDFVGNLLVILSVLRNRKLRNAGNLFVVSLALADLVIALYPYPLILVAIIRDGWVLGEAHCKASAFVMGLSVIGSVFNITAIAINRYCCICHSTTYHRVCSHWYTPIYISLVWLLTLVALVPNFFVGSLEYDPRIYSCTFIQTASTQYTAAVVAIHFLLPMAVVSFCYLRIWVLVLQARRKAKATRKLRLRPSDLRSFLTMFAVFVVFAICWAPLNCIGLAVAINPEAMALQVPEGLFVTSYFLAYFNSCLNAIVYGLLNQNFRREYKRILLAIWNTRRCIQHASKHCLTEERQGPTPPAARATVPVKEGAL"}, "B3": {"name": "mouse melatonin receptor type 1 (MT1), Rluc8 and YFP fusion proteins (receptor, UniProt Q61184 1-353, looked up)", "chain": "MKGNVSELLNATQQAPGGGEGGRPRPSWLASTLAFILIFTIVVDILGNLLVILSVYRNKKLRNSGNIFVVSLAVADLVVAVYPYPLVLTSILNNGWNLGYLHCQVSAFLMGLSVIGSIFNITGIAMNRYCYICHSLKYDKIYSNKNSLCYVFLIWMLTLIAIMPNLQTGTLQYDPRIYSCTFTQSVSSAYTIAVVVFHFIVPMIIVIFCYLRIWVLVLQVRRRVKPDNKPKLKPQDFRNFVTMFVVFVLFAICWAPLNLIGLIVASDPATMVPRIPEWLFVASYYLAYFNSCLNAIIYGLLNQNFRKEYKKIIVSLCTAKMFFVESSNEEADKIKCKPSPLIPNNNLIKVDSV"}}, "key": {"C3H-f+/+ mice [1]": {"tested_on": "C3H-f+/+ mice", "experiment": "Scotopic", "format": "in vivo, mouse", "conditions": "for effect on the melatonin-induced increase in the amplitude of the a- and b-wave: intravitreal antagonist, then melatonin i.p. 1 mg/kg; for amplitude of the a- and b-wave, compound alone: intravitreal injection alone, no melatonin"}, "mouse photoreceptors": {"tested_on": "mouse photoreceptors", "experiment": "Photoreceptor response", "format": "in vivo", "conditions": "for mimicking of the photoreceptor response to melatonin (a-wave at 7 ms): intravitreal injection of the agent; for effect on the melatonin-induced photoreceptor response (a-wave at 7 ms): intravitreal injection of the agent plus melatonin"}, "MT2-/- mice": {"tested_on": "MT2-/- mice", "experiment": "Scotopic", "format": "in vivo, mouse", "conditions": "i.p. 1 mg/kg at ZT6, 1 h dark adaptation"}, "MT2": {"target": "T1, MT2 (Mus musculus, UniProt Q8CIQ6)", "T1 sequence (Q8CIQ6 1-364)": "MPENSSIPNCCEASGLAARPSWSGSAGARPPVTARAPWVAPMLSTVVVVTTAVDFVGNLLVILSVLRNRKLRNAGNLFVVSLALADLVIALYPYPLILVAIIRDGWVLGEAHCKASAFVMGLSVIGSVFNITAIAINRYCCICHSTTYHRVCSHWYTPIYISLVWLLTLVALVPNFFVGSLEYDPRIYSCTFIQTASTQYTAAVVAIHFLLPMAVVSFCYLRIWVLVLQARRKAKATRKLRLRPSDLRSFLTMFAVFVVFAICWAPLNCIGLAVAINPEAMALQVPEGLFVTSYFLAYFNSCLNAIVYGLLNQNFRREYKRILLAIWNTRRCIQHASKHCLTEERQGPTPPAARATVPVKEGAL", "experiment": "Inositol phosphate production, HEK293T cells expressing MT2 alone", "format": "cell-based"}, "MT1 [2]": {"target": "T2, MT1 (Mus musculus, UniProt Q61184)", "conditions": "HEK293T cells expressing MT1 alone"}, "[3]": {"target": "wild-type MT1 receptor with the inactive MT2-P95L mutant (Mus musculus, UniProt Q61184)", "conditions": "cells coexpressing wild-type MT1 with inactive MT2-P95L mutant"}, "MT1/MT2 heteromers [4]": {"target": "T3, MT1/MT2 heteromers (Mus musculus, UniProt Q61184+Q8CIQ6)"}, "MT1 [5]": {"target": "T2, MT1", "conditions": "HEK293T cells expressing MT1 alone, compared with MT1/MT2 heteromers"}, "MT1 and MT2 receptors": {"target": "MT1 and MT2 receptors (Mus musculus, UniProt Q61184+Q8CIQ6)"}, "C3H-f+/+ mice [6]": {"tested_on": "C3H-f+/+ mice", "conditions": "exogenous administration during the day, wild-type mice; cited from earlier work"}, "MT1/MT2 heteromers [7]": {"target": "T3, MT1/MT2 heteromers", "experiment": "cell-based"}, "MT1 [8]": {"target": "T2, MT1", "experiment": "cell-based"}, "mouse MT1 receptor": {"target": "mouse MT1 receptor (Mus musculus, UniProt Q61184)", "experiment": "Competition of 2-[125I]iodo-melatonin binding at mouse MT1", "conditions": "mouse MT1, membranes of HEK293 cells"}, "mouse MT2 receptor": {"target": "T4, mouse MT2 receptor (Mus musculus, UniProt Q8CIQ6)", "T4 sequence (Q8CIQ6 1-364)": "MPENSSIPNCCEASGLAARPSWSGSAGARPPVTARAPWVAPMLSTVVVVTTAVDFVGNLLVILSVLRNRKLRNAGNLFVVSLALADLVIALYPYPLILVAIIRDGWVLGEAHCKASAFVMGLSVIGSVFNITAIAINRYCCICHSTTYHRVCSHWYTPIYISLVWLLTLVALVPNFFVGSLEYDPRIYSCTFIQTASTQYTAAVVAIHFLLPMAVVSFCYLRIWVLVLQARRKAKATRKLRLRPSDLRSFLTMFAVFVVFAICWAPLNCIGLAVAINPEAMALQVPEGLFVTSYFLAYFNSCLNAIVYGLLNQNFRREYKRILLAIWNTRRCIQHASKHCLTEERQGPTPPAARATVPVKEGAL", "experiment": "Competition of 2-[125I]iodo-melatonin binding at mouse MT2", "conditions": "mouse MT2, membranes of HEK293 cells"}, "[9]": {"target": "B3", "experiment": "FRET or BRET"}, "[10]": {"target": "B2", "experiment": "FRET or BRET"}, "FRET or BRET": {"target": "the molecule itself", "experiment": "FRET or BRET"}}, "note": "“Also recorded” adds a separate entry of the source.", "data": [{"molecule": "CC(=O)NCCc1c(Cc2ccccc2)[nH]c2ccccc12", "note": "[luzindole]", "values": [{"measurement": "effect on the melatonin-induced increase in the amplitude of the a- and b-wave", "setting": "C3H-f+/+ mice [1]", "value": "prevented the increase"}, {"measurement": "amplitude of the a- and b-wave, compound alone", "setting": "C3H-f+/+ mice [1]", "value": "did not produce any significant changes"}]}, {"molecule": "Cl.Cl.O=S(=O)(NCCNC/C=C/c1ccc(Br)cc1)c1cccc2cnccc12", "note": "[H89, H-89 dihydrochloride hydrate]", "values": [{"measurement": "mimicking of the photoreceptor response to melatonin (a-wave at 7 ms)", "setting": "mouse photoreceptors", "value": "did not mimic"}, {"measurement": "effect on the melatonin-induced photoreceptor response (a-wave at 7 ms)", "setting": "mouse photoreceptors", "value": "did not affect"}]}, {"molecule": "COc1ccc2[nH]cc(CCNC(C)=O)c2c1", "note": "[melatonin]", "values": [{"measurement": "changes in the dark-adapted ERG", "setting": "MT2-/- mice", "value": "did not produce any changes"}, {"measurement": "photoreceptor response (a-wave at 7 ms)", "setting": "mouse photoreceptors; exogenous melatonin, ZT 6", "value": "significantly increased"}, {"measurement": "EC50", "setting": "MT2", "value": 51, "unit": "nM"}, {"measurement": "inositol phosphate production, result in words", "setting": "MT2; HEK293T cells expressing MT2 alone", "value": "unable to modulate this pathway"}, {"measurement": "inositol phosphate production, result in words", "setting": "MT1 [2]", "value": "inactive; also recorded: only at supra-physiological melatonin amount"}, {"measurement": "inositol phosphate production, result in words", "setting": "[3]", "value": "completely abolished"}, {"measurement": "PKC activity", "setting": "MT1/MT2 heteromers [4]; HEK293T cells expressing MT1/MT2 heteromers, increasing concentrations", "value": "dose-dependently increased"}, {"measurement": "PKC activity with coexpressed MT2-P95L", "setting": "MT1/MT2 heteromers [4]; MT1/MT2 heteromers plus dominant negative MT2-P95L mutant, 100 nM melatonin", "value": "potently inhibited"}, {"measurement": "PKC activity", "setting": "MT1 [5]", "value": "less potently"}, {"measurement": "inhibition of cAMP production", "setting": "MT1 and MT2 receptors", "value": "not impaired but rather improved"}, {"measurement": "amplitudes of a- and b-waves of the scotopic ERG", "setting": "C3H-f+/+ mice [6]", "value": "increases the amplitudes"}]}, {"molecule": "Nc1ncnc2c1nc(Br)n2[C@@H]1O[C@@H]2COP(=O)(O)O[C@H]2[C@H]1O", "note": "[8-br-cAMP, 8-bromoadenosine 3′,5′-cyclic monophosphate]", "values": [{"measurement": "effect on the melatonin-induced photoreceptor response (a-wave at 7 ms)", "setting": "mouse photoreceptors", "value": "had no effect"}]}, {"molecule": "CCC(=O)N[C@@H]1Cc2ccccc2[C@H](c2ccccc2)C1", "note": "(relative stereo) [4P-PDOT, cis-4-Phenyl-2-propionamidotetralin]", "values": [{"measurement": "effect on the melatonin-induced increase in the amplitude of the a- and b-wave", "setting": "C3H-f+/+ mice [1]", "value": "prevented the increase"}, {"measurement": "amplitude of the a- and b-wave, compound alone", "setting": "C3H-f+/+ mice [1]", "value": "did not produce any significant changes"}, {"measurement": "IC50", "setting": "MT1/MT2 heteromers [7]", "value": "4 ± 3.5", "unit": "nM"}, {"measurement": "IC50", "setting": "MT1 [8]", "value": "5.8 ± 7.7", "unit": "nM"}]}, {"molecule": "CN1CCCC1CCn1cc(C2=C(c3c[nH]c4ccccc34)C(=O)NC2=O)c2ccccc21", "note": "(stereo not drawn) [Bisl, Bisindolylmaleimide II]", "values": [{"measurement": "block of the effect of exogenous melatonin on photoreceptors", "setting": "mouse photoreceptors; intravitreal PKC inhibitor plus melatonin", "value": "about 40%"}]}, {"molecule": "CCCC(=O)NCCc1c2n(c3ccc(OC)cc13)Cc1ccccc1-2", "note": "[IIK7]", "values": [{"measurement": "Ki", "setting": "mouse MT1 receptor", "value": "73 ± 23", "unit": "nM"}, {"measurement": "Ki", "setting": "mouse MT2 receptor", "value": "0.052 ± 0.015", "unit": "nM"}, {"measurement": "amplitude of the a- or b-wave", "setting": "C3H-f+/+ mice [1]; intravitreal 50 nM (MT2-selective concentration), C3H-f+/+ mice", "value": "did not increase"}, {"measurement": "amplitude of the a- and b-wave", "setting": "C3H-f+/+ mice [1]; intravitreal 5 μM (activates MT1 and MT2), C3H-f+/+ mice", "value": "significantly increased"}]}, {"molecule": "CCCCCCCCCCCCCC(=O)O[C@@H]1[C@@H](C)[C@@]2(O)[C@@H](C=C(CO)C[C@]3(O)C(=O)C(C)=C[C@@H]23)[C@@H]2C(C)(C)[C@]12OC(C)=O", "note": "[PMA, Phorbol 12-myristate 13-acetate]", "values": [{"measurement": "mimicking of the photoreceptor response to melatonin (a-wave at 7 ms)", "setting": "mouse photoreceptors", "value": "mimicked"}, {"measurement": "effect on the melatonin-induced photoreceptor response (a-wave at 7 ms)", "setting": "mouse photoreceptors", "value": "significantly reduced"}]}, {"molecule": "Cl.NC(CSSCC(N)C(=O)N1CCn2cc(-c3ccccc3)nc2C1CC1CCCCC1)C(=O)N1CCn2cc(-c3ccccc3)nc2C1CC1CCCCC1", "note": "(stereo not drawn) [BIM 46187, 7-[2-amino-1-oxo-3-thio-propyl]-8-cyclohexylmethyl-2-phenyl-5,6,7,8-tetrahydro-i midazo-[1,2a]-pyrazine dimer, hydrochloride]", "values": [{"measurement": "effect on the melatonin-induced photoreceptor response (a-wave at 7 ms)", "setting": "mouse photoreceptors", "value": "inhibited"}]}, {"molecule": "B1", "values": [{"measurement": "BRET50", "setting": "[9]", "value": 3.48}, {"measurement": "BRET50", "setting": "[10]", "value": 1.52}, {"measurement": "BRET50", "setting": "FRET or BRET", "value": 2.61}]}, {"molecule": "B2", "values": [{"measurement": "BRET50", "setting": "[9]", "value": 1.67}]}, {"molecule": "B3", "values": [{"measurement": "BRET50", "setting": "FRET or BRET", "value": 0.71}]}]}
